The source of these data is publication PMC9863764, “Roles of Human Liver Cytochrome P450 Enzymes in Tenatoprazole Metabolism” (Pharmaceutics, 2022).

The structures appear in SMILES notation. Several values for one entry are separate records, joined by “and”; a condition that tells them apart may be missing. Equal entries are not always repeated.

Holding throughout (assay type): in vitro ADME
Data set [1] deals with T1, human CYP3A4 (Homo sapiens, UniProt P08684).
T1 construct: made in house; host or cells: Escherichia coli (membrane fractions)
Briefly: Steady-state kinetics of tenatoprazole oxidation by recombinant CYP3A4. As to conditions: for kcat of product formation: substrate tenatoprazole (1–500 μM), recombinant CYP3A4 0.20 μM, 37 °C, 5 min, label = product formed. On the procedure:
Pooled liver microsomes from human samples were obtained from ThermoFisher Scientific (Waltham, MA, USA). […] Membrane fractions expressing both P450 and CPR of E. coli were prepared as described previously and were used for the catalytic activity assays. […] The reaction was started by adding NGS and the incubation was continued for the indicated time at 37 °C. Incubation was then stopped by adding ice-chilled ethyl acetate (0.50 mL) and omeprazole (IS) was added to a final concentration of 20 μM. […] Phenomenex, Torrance, CA, USA). The products formed were analyzed by HPLC at […]. The HPLC profile of the authentic chemicals (i.e., tenatoprazole, tenatoprazole sulfide, and their metabolites) were used to identify the major metabolites of tenatoprazole and tenatoprazole sulfide produced by the recombinant P450s. […] The kinetic parameters (kcat and Km) were determined by using a Michaelis-Menten nonlinear regression analysis with GraphPad Prism (GraphPad Software, San Diego, CA, USA). To further characterize the nature of the metabolites, the reaction mixtures were additionally analyzed by a 6530 Quadrupole Time-of-Flight (QTOF) mass spectrometer (MS) (Agilent, Santa Clara, CA, USA) coupled with a 1290 Infinity ultra-performance liquid chromatography (UPLC) system (Agilent). […] The reaction was initiated by adding NGS at 37 °C. […] Then, the upper layer was transferred to a glass tube and dried under nitrogen stream. The residues were reconstituted in 0.30 mL acetonitrile, then 1 μL samples were injected into an LC-MS system. The analytical column was a Hypersil Gold C18 column (100 × 2.1 mm, 1.9 μm; ThermoFisher Scientific). […] A gradient program was used for HPLC separation, and the flow rate was 0.4 mL/min. […] The column and autosampler were kept at 35 °C and 4 °C, respectively, during analysis. Electrospray ionization was performed in the positive ion mode. The sheath gas flow rate was 8 L/min. The flow rate of drying gas was 12 L/min at 350 °C, and the nebulizer's temperature was set at 350 °C. The capillary voltage was 4500 V in the positive mode, and that of the fragmentor was 175 V. Data acquisition were done over a scan range from 50 m/z to 1000 m/z in the centroid mode. A reference compound (C18H18O6N3P3F24; [M+H]^+ = 922.0098) was used to correct all of the masses. Tandem mass spectrometry (MS/MS) data were acquired in profile mode via autoanalysis for structural characterization with 30 eV of the collision energy.

Data set [2] addresses T2, CYP1B1 (Homo sapiens, UniProt Q16678).
T2 construct: made in house; host or cells: Escherichia coli (membrane fractions)
T2 sequence (Q16678 1-543): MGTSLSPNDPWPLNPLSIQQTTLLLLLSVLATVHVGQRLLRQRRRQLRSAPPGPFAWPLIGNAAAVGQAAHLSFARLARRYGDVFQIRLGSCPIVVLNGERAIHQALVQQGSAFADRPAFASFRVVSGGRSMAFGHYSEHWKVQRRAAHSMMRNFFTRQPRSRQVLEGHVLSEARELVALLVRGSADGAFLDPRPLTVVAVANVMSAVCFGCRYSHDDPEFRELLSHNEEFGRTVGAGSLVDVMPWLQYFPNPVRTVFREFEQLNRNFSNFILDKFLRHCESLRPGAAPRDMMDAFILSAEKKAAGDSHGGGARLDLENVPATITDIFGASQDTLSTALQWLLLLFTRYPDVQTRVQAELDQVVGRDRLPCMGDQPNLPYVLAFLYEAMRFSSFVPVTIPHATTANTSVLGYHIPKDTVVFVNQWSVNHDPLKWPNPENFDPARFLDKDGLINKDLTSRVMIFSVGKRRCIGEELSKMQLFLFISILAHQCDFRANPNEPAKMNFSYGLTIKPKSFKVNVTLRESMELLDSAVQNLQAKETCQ
Description: Tenatoprazole oxidation by recombinant CYP1B1. As to conditions: substrate tenatoprazole 0.10 mM, 0.20 μM CYP1B1; no apparent formation. The procedure: (§1) Pooled liver microsomes from human samples were obtained from ThermoFisher Scientific (Waltham, MA, USA). Recombinant human P450s were heterologously expressed in Escherichia coli with a pCW vector containing human P450 cDNA (CYP 3A4, 2C9, 2C19, 1A2, 1B1, 2E1, 2D6, and 2A6) and rat NADPH-P450 reductase (CPR). Membrane fractions expressing both P450 and CPR of E. coli were prepared as described previously and were used for the catalytic activity assays.
(§2) The reaction mixture included 0.20 μM P450, 0.40 μM CPR, and tenatoprazole (0.10 mM) in 0.25 mL of 0.10 M potassium phosphate buffer (pH 7.4). The reaction was started by adding NGS and the incubation was continued for the indicated time at 37 °C. Incubation was then stopped by adding ice-chilled ethyl acetate (0.50 mL) and omeprazole (IS) was added to a final concentration of 20 μM. The mixtures were vortexed for 2 min, centrifuged at 1000× g for 20 min, and then the organic layer was taken for drying under nitrogen gas stream. The residues were dissolved in 180 μL of HPLC mobile phase and 30 μL was injected onto a Gemini C18 column (4.6 × 150 mm, 5 μm; Phenomenex, Torrance, CA, USA). The products formed were analyzed by HPLC at A302. The HPLC profile of the authentic chemicals (i.e., tenatoprazole, tenatoprazole sulfide, and their metabolites) were used to identify the major metabolites of tenatoprazole and tenatoprazole sulfide produced by the recombinant P450s.
(§3) Figure S6. HPLC analyses of the products derived from the oxidation of tenatoprazole catalyzed by recombinant human P450s. The reaction mixture included 0.20 μM P450, 0.40 μM CPR, and 0.10 mM tenatoprazole in 0.25 mL of potassium phosphate buffer (0.10 M, pH 7.4). The reaction was started by adding an NGS at 37 °C for 60 min. (A) CYP1A2; (B) CYP1B1; (C) CYP2A6; (D) CYP2C9; (E) CYP2D6; (F) CYP2E1. The arrows with solid and broken lines indicate the retention times of 5’-OH tenatoprazole (6.6 min) and 5’-OH tenatoprazole sulfide (8.4 min), respectively.
(§4) (1 picture or pasted object on this page, not shown here)

In data set [3] the target is T3, CYP2E1 (Homo sapiens, UniProt P05181).
T3 construct: made in house; host or cells: Escherichia coli (membrane fractions)
Briefly: Tenatoprazole oxidation by recombinant CYP2E1. As to conditions: substrate tenatoprazole 0.10 mM, 0.20 μM CYP2E1; no apparent formation. On the procedure:
as §1, §2, §3, §4

T1 sequence (P08684 whole entry): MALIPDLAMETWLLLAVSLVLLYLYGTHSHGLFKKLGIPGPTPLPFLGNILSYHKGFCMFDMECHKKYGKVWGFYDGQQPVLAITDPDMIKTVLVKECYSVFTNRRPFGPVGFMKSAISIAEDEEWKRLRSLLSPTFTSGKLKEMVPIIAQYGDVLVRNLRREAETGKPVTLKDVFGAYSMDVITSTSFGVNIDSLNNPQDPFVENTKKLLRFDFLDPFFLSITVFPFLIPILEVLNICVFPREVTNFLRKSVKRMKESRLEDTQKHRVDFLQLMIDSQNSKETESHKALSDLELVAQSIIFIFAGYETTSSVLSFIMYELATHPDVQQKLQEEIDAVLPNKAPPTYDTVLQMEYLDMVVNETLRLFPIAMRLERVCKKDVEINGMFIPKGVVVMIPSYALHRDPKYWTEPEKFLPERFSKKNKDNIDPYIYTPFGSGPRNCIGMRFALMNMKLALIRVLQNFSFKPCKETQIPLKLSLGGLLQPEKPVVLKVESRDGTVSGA
T3 sequence (P05181 whole entry): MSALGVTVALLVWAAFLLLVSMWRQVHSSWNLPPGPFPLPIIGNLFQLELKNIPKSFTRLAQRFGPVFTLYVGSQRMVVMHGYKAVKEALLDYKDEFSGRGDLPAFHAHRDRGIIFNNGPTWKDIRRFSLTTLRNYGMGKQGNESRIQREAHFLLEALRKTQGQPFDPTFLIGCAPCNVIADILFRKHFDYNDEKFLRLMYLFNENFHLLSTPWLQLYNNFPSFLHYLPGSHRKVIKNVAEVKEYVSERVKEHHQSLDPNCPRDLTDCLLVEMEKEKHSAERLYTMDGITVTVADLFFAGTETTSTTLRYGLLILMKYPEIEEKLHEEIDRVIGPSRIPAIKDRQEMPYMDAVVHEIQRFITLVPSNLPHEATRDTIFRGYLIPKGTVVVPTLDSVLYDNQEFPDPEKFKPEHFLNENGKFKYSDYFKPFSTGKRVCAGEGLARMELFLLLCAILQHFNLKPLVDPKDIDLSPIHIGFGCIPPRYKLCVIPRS

`COc1ccc2[nH]c([S+]([O-])Cc3ncc(CO)c(OC)c3C)nc2n1` (stereo not shown) [5′-OH tenatoprazole, 5′-hydroxy tenatoprazole]: the “fold higher Km of CYP3A4 than CYP2C19” value in data set [1] (5′-OH tenatoprazole formation from tenatoprazole) is 100 fold. Further, the “kcat of product formation” value in data set [1] is 0.105 s⁻¹ and 0.105 ± 0.005 s⁻¹. Besides, the “formation rate of metabolite” value in data set [2] and in data set [3] was < 0.05 nmol product/min/nmol P450 each time.

As to `COc1ccc2[nH]c(S(=O)(=O)Cc3ncc(C)c(OC)c3C)nc2n1` [tenatoprazole sulfone], the “kcat of product formation” value in data set [1] is 0.045 s⁻¹ and 0.045 ± 0.013 s⁻¹. In addition, the “formation rate of metabolite” value in data set [2] and in data set [3] was < 0.05 nmol product/min/nmol P450 each time.
